What was measured:
[1] = body weight change and deaths in the mouse model of adenomatous polyposis; format: in vivo; settings: COX 125 ppm in feed ad libitum, HDAI 10 mg/kg i.v. 3x/wk for three weeks
Protocol: 5-methyl-2-(2′-chloro-6′-fluoro-anilino)-phenyl acetic acid (alternatively named [2-(2′-chloro-6′-fluoro-phenylamino)-5-methyl-phenyl]acetic acid; for the preparation see Example 1) (“COX”) and N-hydroxy-3-[4-[[(2-hydroxyethyl)[2-(1H-indol-3-yl)ethyl]-amino]methyl]phenyl]-2E-2-propenamide (alternatively named (E)-N-Hydroxy-3-[4-({(2-hydroxy-ethyl)-[2-(1H-indol-3-yl)-ethyl]-amino}-methyl)-phenyl]-acrylamide; for the preparation see Example 3) (“HDAI”) are tested as single agents and together as combination therapy in a mouse model of adenomatous polyposis for the prevention and treatment of intestinal polyps. HDAI is administered intravenously to the mice at 10 mg/kg in a 5% (w/v) dextrose in water solution, q.d., 3 times per week for three weeks. COX is administered as a dietary admixture at a concentration of 125 ppm. % T/C is the quotient of the mean number of polyps in the treated mice divided by the mean number of polyps in the control mice times 100. The following results of duplicate experiments are observed: […]

intestinal polyps = experiment: mouse model of adenomatous polyposis, prevention and treatment of intestinal polyps; format: in vivo; settings: COX 125 ppm in feed ad libitum, HDAI 10 mg/kg i.v. 3x/wk for three weeks
Protocol: 5-methyl-2-(2′-chloro-6′-fluoro-anilino)-phenyl acetic acid (alternatively named [2-(2′-chloro-6′-fluoro-phenylamino)-5-methyl-phenyl]acetic acid; for the preparation see Example 1) (“COX”) and N-hydroxy-3-[4-[[(2-hydroxyethyl)[2-(1H-indol-3-yl)ethyl]-amino]methyl]phenyl]-2E-2-propenamide (alternatively named (E)-N-Hydroxy-3-[4-({(2-hydroxy-ethyl)-[2-(1H-indol-3-yl)-ethyl]-amino}-methyl)-phenyl]-acrylamide; for the preparation see Example 3) (“HDAI”) are tested as single agents and together as combination therapy in a mouse model of adenomatous polyposis for the prevention and treatment of intestinal polyps. HDAI is administered intravenously to the mice at 10 mg/kg in a 5% (w/v) dextrose in water solution, q.d., 3 times per week for three weeks. COX is administered as a dietary admixture at a concentration of 125 ppm. % T/C is the quotient of the mean number of polyps in the treated mice divided by the mean number of polyps in the control mice times 100. The following results of duplicate experiments are observed:
Both agents alone cause a statistically significant reduction in the number of newly formed intestinal polyps. […] Statistical evaluations are performed using a one tailed Student t-test and all p values are less than 0.01.

[2] = second of duplicate experiments

Row | SMILES | % Body Wt. Change ([1]; first of duplicate experiments) | Dead/Total animals ([1]; first of duplicate experiments) | % Body Wt. Change [1, 2] | Dead/Total animals [1, 2] | % T/C (mean number of polyps treated / control x 100) (intestinal polyps; first of duplicate experiments) [%] | Mean Intestinal Polyp Count (# ± SEM) (intestinal polyps; first of duplicate experiments) | % T/C (mean number of polyps treated / control x 100) (intestinal polyps; [2]) [%] | Mean Intestinal Polyp Count (# ± SEM) (intestinal polyps; [2])
1 | O=C(/C=C/c1ccc(CN(CCO)CCc2c[nH]c3ccccc23)cc1)NO [HDAI, N-hydroxy-3-[4-[[(2-hydroxyethyl)[2-(1H-indol-3-yl)ethyl]-amino]methyl]phenyl]-2E-2-propenamide] | +3.5 ± 0.1% | 0/7 | +9.6 ± 0.1% | 0/7 | 52 | 12 ± 0.57 # | 57 | 15 ± 0.3 #
2 | Cc1ccc(Nc2c(F)cccc2Cl)c(CC(=O)O)c1 [COX, 5-methyl-2-(2′-chloro-6′-fluoro-anilino)-phenyl acetic acid] | +10 ± 0.1% | 0/7 | +8.1 ± 0.2% | 0/7 | 60 | 14 ± 0.7 # | 46 | 12 ± 0.3 #

From patent US7402603B2, “Cyclooxygenase-2 inhibitor/histone deacetylase inhibitor combination” (Novartis AG, priority 2001, dated 2008)
